Reference: patent US12428406B2 (PMV Pharmaceuticals, Inc., priority 2019, dated 2025)

What follows are molecules tested against T1, p53 Y220C (Homo sapiens, UniProt P04637, Y220C) (assay: In vitro DNA binding activity assay (HTRF / TR-FRET): stabilization of p53 Y220C and increase of its DNA binding activity). Conditions: recombinant His-tagged p53 Y220C DNA binding domain (aa 94-312), biotin-labeled consensus DNA, incubated at 27° C. or 29° C. for 60 min.
T1 construct: The recombinant protein was a truncation mutant containing only amino acids 94-312 of p53; made in house; host or cells: E. coli
Type: biochemical
Procedure: The ability of a compound of the invention to stabilize p53 Y220C and increase the DNA binding activity of p53 Y220C was measured by a homogeneous time-resolved fluorescence (HTRF) assay. Recombinant His-tagged p53 Y220C used in the HTRF assay was expressed in the bacterium E. coli.
The binding of the recombinant His-tagged p53 Y220C protein and the biotin-labeled consensus DNA was measured using fluorescence resonance energy transfer (FRET). For the FRET assay, the binding between the p53 mutant and the DNA sequence was measured by detecting the fluorescence of the interaction between an anti-His antibody conjugated to allophycocyanin (APC) and streptavidin conjugated to europium to detect the biotin-labeled DNA.
The test compounds were prepared as 4.5 mM stock solutions in dimethyl sulfoxide (DMSO). The compounds of the disclosure were used to test the stabilization of p53 Y220C and increase in DNA binding activity of p53 Y220C. The stock solutions were then serially diluted 3-fold in DMSO, and 1.2 μL of the diluted solutions was added to each well of a 384-well polypropylene black plate.
The test and control samples were spun at 1200 rpm for 1 minute and incubated at room temperature for 15 minutes. […] The plates were spun at 1200 rpm for 1 minute and incubated at room temperature for 20 minutes. The assay signals were monitored by reading excitation at 340 nm, and emission fluorescence at 615 nm and 665 nm on a plate reader.
The percentage of activation of protein DNA binding in the presence of a compound of the invention compared to the absence of the compound was denoted by a SC150 value, which indicated the concentration of the compound required to increase the DNA binding activity by 50%. The SC150 values were calculated using either Prism™ or ActivityBase™.

T1 sequence (P04637 94-312, change not shown): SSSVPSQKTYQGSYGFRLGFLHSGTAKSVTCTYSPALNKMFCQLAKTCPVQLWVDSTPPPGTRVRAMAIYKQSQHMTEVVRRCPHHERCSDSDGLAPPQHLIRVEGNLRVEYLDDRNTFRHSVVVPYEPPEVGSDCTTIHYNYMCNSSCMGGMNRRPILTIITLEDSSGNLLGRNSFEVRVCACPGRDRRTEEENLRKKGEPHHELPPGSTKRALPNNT

SC150 (concentration of the compound required to increase the DNA binding activity by 50%), + (+ = 0 μM ≤ SC150 < 0.05 μM):
CCOC(=O)c1ccc(NCC#Cc2cc3c(N[C@H]4CCN(C)C[C@H]4F)cccc3n2CC(F)(F)F)c(OC)c1 (racemic) [Compound 798A, rac-ethyl 4-{[3-(4-{[(3R,4S)-3-fluoro-1-methylpiperidin-4-yl]amino}-1-(2,2,2-trifluoroethyl)-1H-indol-2-yl)prop-2-yn-1-yl]amino}-3-methoxybenzoate]
COc1cc(S(N)(=O)=O)ccc1NCC#Cc1cc2c(N[C@@H]3CCN(C[C@H](COC(C)=O)OC(C)=O)C[C@@H]3F)cccc2n1CC(F)(F)F (racemic) [Compound 799A, (2R)-1-(acetyloxy)-3-[(3RS,4SR)-3-fluoro-4-[(2-{3-[(2-methoxy-4-sulfamoylphenyl)amino]prop-1-yn-1-yl}-1-(2,2,2-trifluoroethyl)-1H-indol-4-yl)amino]piperidin-1-yl]propan-2-yl acetate]
COc1cc(C(=O)OCC(C)O)ccc1NCC#Cc1cc2c(N[C@H]3CCN(C)C[C@H]3F)cccc2n1CC(F)(F)F (mixture of isomers) [Compound 806A, rac-2-hydroxypropyl 4-{[3-(4-{[(3R,4S)-3-fluoro-1-methylpiperidin-4-yl]amino}-1-(2,2,2-trifluoroethyl)-1H-indol-2-yl)prop-2-yn-1-yl]amino}-3-methoxybenzoate]
COc1cc(S(C)(=O)=O)ccc1NCC#Cc1cc2c(N[C@H]3CCN(CC(N)=O)C[C@H]3F)cccc2n1CC(F)(F)F (racemic) [Compound 811A, rac-2-[(3R,4S)-3-fluoro-4-[(2-{3-[(4-methanesulfonyl-2-methoxyphenyl)amino]prop-1-yn-1-yl}-1-(2,2,2-trifluoroethyl)-1H-indol-4-yl)amino]piperidin-1-yl]acetamide]
COCCNC(=O)c1ccc(NCC#Cc2cc3c(N[C@H]4CCN(C)C[C@H]4F)cccc3n2CC(F)(F)F)c(OC)c1 (racemic) [Compound 814A, rac-4-{[3-(4-{[(3R,4S)-3-fluoro-1-methylpiperidin-4-yl]amino}-1-(2,2,2-trifluoroethyl)-1H-indol-2-yl)prop-2-yn-1-yl]amino}-3-methoxy-N-(2-methoxyethyl)benzamide]
COc1cc(C(=O)N(C)C)ccc1NCC#Cc1cc2c(N[C@H]3CCN(C)C[C@H]3F)cccc2n1CC(F)(F)F (racemic) [Compound 815A, rac-4-{[3-(4-{[(3R,4S)-3-fluoro-1-methylpiperidin-4-yl]amino}-1-(2,2,2-trifluoroethyl)-1H-indol-2-yl)prop-2-yn-1-yl]amino}-3-methoxy-N,N-dimethylbenzamide]
COCC(O)CNC(=O)c1ccc(NCC#Cc2cc3c(N[C@H]4CCN(C)C[C@H]4F)cccc3n2CC(F)(F)F)c(OC)c1 (mixture of isomers) [Compound 816A]
COc1cc(C(=O)NC(C)C)ccc1NCC#Cc1cc2c(N[C@H]3CCN(C)C[C@H]3F)cccc2n1CC(F)(F)F (racemic) [Compound 817A, rac-4-{[3-(4-{[(3R,4S)-3-fluoro-1-methylpiperidin-4-yl]amino}-1-(2,2,2-trifluoroethyl)-1H-indol-2-yl)prop-2-yn-1-yl]amino}-3-methoxy-N-(propan-2-yl)benzamide]
